Measurements reported in patent publication US20260166170A1, “ANTIBODY DRUG CONJUGATE COMPRISING NMT INHIBITOR AND ITS USE” (MyricX Pharma Limited, priority 2022, published 2026).

B1: ifinatamab-DXd: ifinatamab-deruxtecan, comparator ADC (conjugate, chains of the INN, looked up)
VH: QVQLVQSGAEVKKPGSSVKVSCKASGYTFTNYVMHWVRQAPGQGLEWMGYINPYNDDVKYNEKFKGRVTITADESTSTAYMELSSLRSEDTAVYYCARWGYYGSPLYYFDYWGQGTLVTVSS
VL: EIVLTQSPATLSLSPGERATLSCRASSRLIYMHWYQQKPGQAPRPLIYATSNLASGIPARFSGSGSGTDFTLTISSLEPEDFAVYYCQQWNSNPPTFGQGTKVEIK
modifications: deruxtecan (DXd) payload
notes: ifinatamab-deruxtecan, comparator ADC

Columns and labels:
[1] = system: BT474 breast cancer cells; assay: Orthotopic breast cancer xenograft model; assay type: in vivo, NOD/SCID mice; conditions: trastuzumab or ADC Example 1 2.5 or 5 mg/kg; NMT inhibitor 1 2 mg/kg
Method: During the study, body weights were measured three times weekly for all animals. Animals were given Diet Gel for the entire duration on the study.

[2] = system: LNCaP tumours; assay: LNCaP prostate cancer xenograft model; assay type: in vivo, male NOD SCID mice; conditions: IV, Q7D (x3); for Tumour growth inhibition (TGI, %): day 28
From the text: Adjusted p value calculated by Kruskal-Wallis test and Dunn's multiple comparisons relative to vehicle control. […] C is the mean tumour volume of the control Group 1 mice on the measurement day and C0 is the mean tumour volume on Study Day 0.

[3] = system: VCaP human prostate cancer xenograft; assay: VCaP prostate cancer xenograft model; assay type: in vivo, non-castrated male CB17/SCID mice
Method: The objective of this study was to evaluate preclinically the in vivo therapeutic efficacy of ADC Example 4 in the treatment of subcutaneous VCaP human prostate cancer xenograft model in non-castrated male CB17/SCID mice.
In this study, 144 mice were inoculated subcutaneously in the right front flank region with 1×10^7 viable VCaP tumour cells resuspended in 0.1 mL of PBS mixed with Matrigel (1:1) for tumour development on Study Day−20. 80 mice were assigned to 8 treatment groups when tumour volumes averaged ˜162.16 mm^3 on Study Day 0. Dosing commenced the following day and all animals were dosed intravenously with ADC Example 4, ifinatamab-deruxtecan (ifinatamab-Dxd) or unconjugated ifinatamab. All mice received two doses of test agent, on Study Day 1 and Study Day 8. The study was terminated on Study Day 30.

[4] = system: JIMT-1 human breast xenograft; assay: JIMT-1 breast cancer xenograft model; assay type: in vivo
From the text: The study was terminated on the Study Day 60.

Row | Molecule | LNCaP tumour volume compared to vehicle control ([2]; 5 mg/kg) | LNCaP tumour volume compared to vehicle control ([2]; 10 mg/kg) | Tumour growth inhibition (TGI, %) ([2]; 10 mg/kg) | tumour volumes compared to vehicle alone ([3]; 2.5 mg/kg) | tumour volumes compared to vehicle alone ([3]; 5 mg/kg) | tumour volumes compared to vehicle alone ([4]; 2.5 mg/kg) | tumour volumes compared to vehicle alone ([4]; 5 mg/kg) | also measured
1 | CNCc1cnc2ccc(-c3ccc(F)c(F)c3OCCc3c(C(O)C(C)(C)C)nn(C)c3C)cn12 (centres unmarked) [NMT inhibitor 1, 1-(4-(2-(2,3-difluoro-6-(3-((methylamino)methyl)imidazo[1,2-a]pyridin-6-yl)phenoxy)ethyl)-1,5-dimethyl-1H-pyrazol-3-yl)-2,2-dimethylpropan-1-ol] | – | – | – | – | – | – | – | body weights of mice compared to vehicle control [1]: decreased significantly
2 | ifinatamab | no significant effect | no significant effect | 13.0% | no significant difference | no significant difference | – | – | –
3 | sacituzumab | – | – | – | – | – | no significant difference | significant decrease | –
4 | sacituzumab govitecan [reference compound] | – | – | – | – | – | significant decrease | significant decrease | –
5 | B1 | slowed the growth of LNCaP tumours to a lesser extent | significantly reduced the mean volume of LNCaP tumours | 75.0% | no significant difference | significantly higher tumour volume | – | – | Day 28 tumour volume (mm^3, mean ± SEM) ([2]; 5 mg/kg): 364.6 ± 51.7 mm^3; Tumour growth inhibition (TGI, %) ([2]; 5 mg/kg): 58.8%; Day 28 tumour volume (mm^3, mean ± SEM) ([2]; 10 mg/kg): 259.5 ± 50.3 mm^3; ΔTGI (Study Day 17) ([3]; 2.5 mg/kg IV QW × 2 weeks): 5.24%; ΔTGI (Study Day 17) ([3]; 5 mg/kg IV QW × 2 weeks): 2.86%
